This passage reports inhibition results from patent publication US20110172217A1, “RING-FUSED MORPHOLINE DERIVATIVE HAVING PI3K-INHIBITING ACTIVITY” (Shionogi & Co., Ltd., priority 2008, published 2011).

Sequence of PI-3 kinase γ (P48736 whole entry): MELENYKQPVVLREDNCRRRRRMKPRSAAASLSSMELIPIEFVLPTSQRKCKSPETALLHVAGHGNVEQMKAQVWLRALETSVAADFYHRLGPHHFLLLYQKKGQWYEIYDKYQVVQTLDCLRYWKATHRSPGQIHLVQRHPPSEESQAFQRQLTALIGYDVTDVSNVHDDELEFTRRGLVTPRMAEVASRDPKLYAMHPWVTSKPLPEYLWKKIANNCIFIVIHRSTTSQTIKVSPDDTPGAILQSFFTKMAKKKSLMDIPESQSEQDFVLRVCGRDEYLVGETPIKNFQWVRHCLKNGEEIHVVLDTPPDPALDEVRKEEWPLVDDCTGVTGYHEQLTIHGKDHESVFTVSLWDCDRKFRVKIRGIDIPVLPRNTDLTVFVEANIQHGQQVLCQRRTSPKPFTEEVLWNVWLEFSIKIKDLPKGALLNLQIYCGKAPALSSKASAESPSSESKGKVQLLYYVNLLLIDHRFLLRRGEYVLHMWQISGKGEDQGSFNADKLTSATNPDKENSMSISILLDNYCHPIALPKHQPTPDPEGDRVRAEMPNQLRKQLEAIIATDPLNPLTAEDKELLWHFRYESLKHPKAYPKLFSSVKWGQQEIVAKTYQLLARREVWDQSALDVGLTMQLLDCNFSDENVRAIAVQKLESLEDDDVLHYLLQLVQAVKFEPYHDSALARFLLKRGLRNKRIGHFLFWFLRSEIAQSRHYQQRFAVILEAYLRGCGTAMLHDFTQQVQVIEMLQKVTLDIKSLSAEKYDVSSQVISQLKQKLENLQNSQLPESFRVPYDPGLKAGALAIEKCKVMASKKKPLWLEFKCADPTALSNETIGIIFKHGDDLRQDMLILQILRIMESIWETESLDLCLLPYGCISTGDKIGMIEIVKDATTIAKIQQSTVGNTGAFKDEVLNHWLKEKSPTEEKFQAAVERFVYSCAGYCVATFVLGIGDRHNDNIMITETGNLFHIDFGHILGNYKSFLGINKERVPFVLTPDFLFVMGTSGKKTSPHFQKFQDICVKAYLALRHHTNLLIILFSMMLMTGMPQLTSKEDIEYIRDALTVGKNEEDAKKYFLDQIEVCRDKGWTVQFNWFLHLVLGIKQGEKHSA

The experiment addresses PI-3 kinase γ (Homo sapiens, UniProt P48736). The experiment can be described thus: PI3Kγ inhibitory activity, PI3-kinase HTRF assay (inhibition ratio). The format is biochemical. The settings on record: 0.5 h, compound at 50 μmol/L. The procedure: For each compound synthesized in the above Examples, PI3Kγ inhibitory activity was measured.
The PI3Kγ inhibitory activity of a compound was evaluated using PI3-kinase HTRF™ assay (Millipore) according to the following procedure:
To each well of a testing plate, 5 μL of a compound solution containing 10% DMSO (200 μmol/L or 40 μmol/L as the concentration of the compound), 5 μL of a substrate solution (40 μmol/L phosphatidylinositol (4,5)-bisphosphate, 20 mmol/L MgCl2, 10 mmol/L DTT), and 5 μL of a enzyme solution (80 μg/mL PI-3 kinase γ, 10 mmol/L MgCl2, 5 mmol/L DTT) were added, and then allowed to stand for 10 minutes.
Then, 5 μL of a reaction solution (40 μmol/L ATP, 10 mmol/L MgCl2, 5 mmol/L DTT) was added thereto. After reacting for 30 minutes at room temperature, 5 μL of a solution containing EDTA and biotinylated phosphatidylinositol (3,4,5)-triphosphate were added to quench the reaction.
5 μL of a detection reagent containing a europium-labeled anti-GST antibody, the GST-tagged PH domain, and allophycocyanin-labeled streptavidin was added thereto. After 18 hours, HTRF (excitation wavelength: 330 nm, measured wavelengths: 620 nm and 665 nm) was measured.
HTRF ratio was defined as the value obtained by dividing the amount of fluorescence obtained at the measured wavelength 665 nm by the amount of fluorescence obtained at 620 nm. The HTRF ratio in the absence of a compound was defined as 100% activity and the HTRF ratio in the absence of PI-3 kinase γ was defined as 0% activity to calculate an inhibition ratio which was defined as the PI3Kγ inhibitory activity of a compound at 50 μmol/L or 10 μmol/L.
A general note: In TR-FRET formats the signal depends on donor and acceptor labels being close together.
Take `O=C(Nc1ccccc1)N1CCOc2cc(-c3ccnn3C3CCCCO3)cnc21` (stereo not shown) [Compound I-250]: the inhibition at 50 µM amounted to 91%.

Consider `COc1cccc(NC(=O)N2CCOc3ccc(Nc4ccc(C(=O)O)cc4)nc32)c1` [Compound I-211], for which the inhibition at 50 µM is not below 95%.

With `Nc1ccc2c(n1)N(C(=O)Nc1ccccc1)CCO2` [Compound I-108], the inhibition at 50 µM is 88%.

On to `O=C(O)c1ccc(-c2ccc3c(n2)N(C(=O)Nc2ccncc2)CCO3)cc1` [Compound I-209], for which the inhibition at 50 µM was 90%.

As to `Cc1n[nH]cc1-c1ccc2c(n1)N(C(=O)Nc1ccccc1)CCO2` [Compound I-188], the inhibition at 50 µM is not below 95%.

As for `O=C(Nc1ccccc1)N1CCOc2ccc(-c3ncco3)nc21` [Compound I-84], the inhibition at 50 µM amounted to 72%.

For the molecule `O=C(O)CNC(=O)c1ccc(Nc2ccc3c(n2)N(C(=O)Nc2ccccc2)CCO3)cc1` [Compound I-278], the inhibition at 50 µM was not below 95%.

As to `CC(C)CCc1ccc2c(n1)N(C(=O)Nc1ccccc1)CCO2` [Compound I-88], the inhibition at 50 µM was 91%.

As to `CC(C)(C)OC(=O)COc1ccc(Nc2ccc3c(n2)N(C(=O)Nc2ccccc2)CCO3)cc1` [Compound I-213], the inhibition at 50 µM is not below 95%.

For `CC(C)(C)OC(=O)N1CCN(c2cnc3c(c2)OCCN3C(=O)Nc2ccccc2)CC1` [Compound I-244], the inhibition at 50 µM turned out to be 80%.

On to `CC(C)(C)OC(=O)N1CCC(Nc2ccc3c(n2)N(C(=O)Nc2ccccc2)CCO3)CC1` [Compound I-231], for which the inhibition at 50 µM was not below 95%.

For the molecule `CC(C)(C)OC(=O)CNC(=O)c1cccc(Nc2ccc3c(n2)N(C(=O)Nc2ccccc2)CCO3)c1` [Compound I-272], the inhibition at 50 µM is not below 95%.

Consider `CNC(=O)c1ccc(-c2ccc3c(n2)N(C(=O)Nc2ccccc2)CCO3)cc1` [Compound I-70], for which the inhibition at 50 µM is 71%.

For `O=C(Nc1ccccc1)N1CCOc2ccc(-c3cncnc3)nc21` [Compound I-106], the inhibition at 50 µM is not below 95%.

As to `O=C(Nc1ccccc1)N1CCOc2cc(Nc3ccc(CN4CCS(=O)(=O)CC4)cc3)cnc21` [Compound I-325], the inhibition at 50 µM is 82%.

For the molecule `O=C(Nc1ccccc1)N1CCOc2ccc(Nc3cccnc3)nc21` [Compound I-181], the inhibition at 50 µM is not below 95%.

Consider `O=C(O)CCCc1ccc2c(n1)N(C(=O)Nc1ccccc1)CCO2` [Compound I-95], for which the inhibition at 50 µM was not below 95%.

For `O=C(Nc1ccccc1)N1CCOc2ccc(C3CCCCC3)nc21` [Compound I-86], the inhibition at 50 µM is 82%.

Consider `O=C(O)c1ccc(-c2ccc3c(n2)N(C(=O)NCCO)CCO3)cc1` [Compound I-205], for which the inhibition at 50 µM is not below 95%.

`CCCc1ccc2c(n1)N(C(=O)Nc1ccccc1)CCO2` [Compound I-90]: the inhibition at 50 µM was found to be 72%.

In the case of `O=C(O)Cc1ccc(Nc2ccc3c(n2)N(C(=O)Nc2ccccc2)CCO3)cc1` [Compound I-225], the inhibition at 50 µM is not below 95%.

Take `O=C(Nc1ccccc1)N1CCOc2cc(-c3cnn(CCN4CCOCC4)c3)cnc21` [Compound I-293]: the inhibition at 50 µM was not below 95%.

As for `NCCOc1ccccc1Nc1ccc2c(n1)N(C(=O)Nc1ccccc1)CCO2` [Compound I-223], the inhibition at 50 µM is not below 95%.

On to `O=C(Nc1ccccc1)N1CCOc2cc(Nc3ccc(F)cc3Cl)cnc21` [Compound I-309], for which the inhibition at 50 µM is 90%.

As to `CC(C)(C)NC(=O)c1ccccc1Nc1cnc2c(c1)OCCN2C(=O)Nc1ccccc1` [Compound I-315], the inhibition at 50 µM was 93%.

For the molecule `CC(C)(C)OC(=O)CCNC(=O)c1cnc2c(c1)OCCN2C(=O)Nc1ccccc1` [Compound I-305], the inhibition at 50 µM was determined as 84%.

`COC(=O)c1cncc(-c2ccc3c(n2)N(C(=O)Nc2ccccc2)CCO3)c1` [Compound I-249]: the inhibition at 50 µM was not below 95%.

Regarding `O=C(Nc1ccccc1)N1CCOc2ccc(-c3ccncc3)nc21` [Compound I-107], the inhibition at 50 µM was not below 95%.

In the case of `COC(=O)c1cccc(Nc2ccc3c(n2)N(C(=O)Nc2ccccc2)CCO3)c1` [Compound I-232], the inhibition at 50 µM is not below 95%.

On to `O=C(O)CCc1ccc2c(n1)N(C(=O)Nc1ccccc1)CCO2` [Compound I-94], for which the inhibition at 50 µM was not below 95%.

For `O=C(Nc1ccccc1)N1CCOc2ccc(-c3ccc(CO)cc3)nc21` [Compound I-97], the inhibition at 50 µM is 89%.

With `CC(C)(C)OC(=O)COc1cccc(Nc2ccc3c(n2)N(C(=O)Nc2ccccc2)CCO3)c1` [Compound I-233], the inhibition at 50 µM was not below 95%.

On to `COC(=O)c1ccc(N(C)c2cnc3c(c2)OCCN3C(=O)Nc2ccccc2)cc1` [Compound I-243], for which the inhibition at 50 µM was 77%.

As to `C#Cc1cccc(Nc2cnc3c(c2)OCCN3C(=O)Nc2ccccc2)c1` [Compound I-314], the inhibition at 50 µM stood at 78%.

With `NCCOc1cccc(Nc2ccc3c(n2)N(C(=O)Nc2ccccc2)CCO3)c1` [Compound I-222], the inhibition at 50 µM was not below 95%.

For the molecule `O=C(O)Cn1cc(-c2cnc3c(c2)OCCN3C(=O)Nc2ccccc2)cn1` [Compound I-280], the inhibition at 50 µM was determined as 88%.

On to `CCN(CC)c1ccc(Nc2cnc3c(c2)OCCN3C(=O)Nc2ccccc2)cc1` [Compound I-310], for which the inhibition at 50 µM was not below 95%.

As to `CCCCNS(=O)(=O)c1cccc(Nc2cnc3c(c2)OCCN3C(=O)Nc2ccccc2)c1` [Compound I-311], the inhibition at 50 µM turned out to be 81%.

On to `O=C(Nc1ccccc1)N1CCOc2cc(N3CCNCC3)cnc21` [Compound I-246], for which the inhibition at 50 µM was not below 95%.

In the case of `CC(=O)Nc1ccc2c(n1)N(C(=O)Nc1ccccc1)CCO2` [Compound I-174], the inhibition at 50 µM was determined as 79%.

Regarding `O=C(Nc1ccccc1)N1CCOc2cc(Nc3ccc4c(c3)CCO4)cnc21` [Compound I-320], the inhibition at 50 µM stood at 95%.

Take `O=C(O)CC(=O)Nc1ccc2c(n1)N(C(=O)Nc1ccccc1)CCO2` [Compound I-123]: the inhibition at 50 µM is not below 95%.

With `Cc1noc(C)c1-c1ccc2c(n1)N(C(=O)Nc1ccccc1)CCO2` [Compound I-100], the inhibition at 50 µM is not below 95%.

In the case of `CC(C)(C)OC(=O)N1CCN(c2cnc3c(c2)OCCN3C(=O)Nc2ccccc2)CC1C(=O)O` (stereo not shown) [Compound I-245], the inhibition at 50 µM was not below 95%.

In the case of `COc1ccc(-c2ccc3c(n2)N(C(=O)Nc2ccccc2)CCO3)cc1` [Compound I-98], the inhibition at 50 µM amounted to 73%.

Regarding `CN(c1ccc(C(=O)O)cc1)c1ccc2c(n1)N(C(=O)Nc1ccccc1)CCO2` [Compound I-284], the inhibition at 50 µM turned out to be 82%.

Turning to `CN1CCOc2cc(-c3ccc4c(n3)N(C(=O)Nc3ccccc3)CCO4)ccc21` [Compound I-77], the inhibition at 50 µM turned out to be 82%.

Turning to `O=C(O)C1CCN(c2ccc3c(n2)N(C(=O)Nc2ccccc2)CCO3)CC1` [Compound I-220], the inhibition at 50 µM is not below 95%.

`CC(C)(C)OC(=O)c1cccc(Nc2ccc3c(n2)N(C(=O)Nc2ccccc2)CCO3)c1` [Compound I-142]: the inhibition at 50 µM is 78%.

As to `O=C(O)c1ccc(-c2cnc3c(c2)OCCN3C(=O)Nc2ccccc2)cc1` [Compound I-111], the inhibition at 50 µM was 87%.

As for `COc1ccc2cc(-c3cnc4c(c3)OCCN4C(=O)Nc3ccccc3)[nH]c2c1` [Compound I-302], the inhibition at 50 µM was determined as 87%.

Consider `O=C(Nc1ccccc1)N1CCOc2ccc(-c3cccnc3)nc21` [Compound I-102], for which the inhibition at 50 µM was 94%.

For `CCOC(=O)Cc1ccc(Nc2ccc3c(n2)N(C(=O)Nc2ccccc2)CCO3)cc1` [Compound I-212], the inhibition at 50 µM was not below 95%.

Regarding `COc1ccc(Nc2cnc3c(c2)OCCN3C(=O)Nc2ccccc2)cc1` [Compound I-313], the inhibition at 50 µM amounted to 92%.

On to `O=C(O)c1cccc(-c2ccc3c(n2)N(C(=O)Nc2ccccc2)CCO3)c1` [Compound I-104], for which the inhibition at 50 µM is not below 95%.

In the case of `COC(=O)c1ccc(Nc2cnc3c(c2)OCCN3C(=O)Nc2ccccc2)cc1OC` [Compound I-327], the inhibition at 50 µM was 86%.

On to `CCOC(=O)CC(=O)Nc1ccc2c(n1)N(C(=O)Nc1ccccc1)CCO2` [Compound I-122], for which the inhibition at 50 µM was determined as 87%.

Take `O=C(Nc1ccccc1)N1CCOc2cc(Nc3ccc(Oc4ccccc4)cc3)cnc21` [Compound I-322]: the inhibition at 50 µM turned out to be 78%.

For the molecule `COC(=O)c1ccc(-c2ccc(Nc3cnc4c(c3)OCCN4C(=O)Nc3ccccc3)cc2)cc1` [Compound I-321], the inhibition at 50 µM amounted to 76%.

For the molecule `CC(C)(C)OC(=O)COc1cccc(Nc2cnc3c(c2)OCCN3C(=O)Nc2ccccc2)c1` [Compound I-234], the inhibition at 50 µM is not below 95%.

Consider `O=C(Nc1ccccc1)N1CCOc2cc(Nc3ccccc3)cnc21` [Compound I-132], for which the inhibition at 50 µM was found to be 83%.

Take `CC(C)(C)OC(=O)COc1ccccc1Nc1ccc2c(n1)N(C(=O)Nc1ccccc1)CCO2` [Compound I-242]: the inhibition at 50 µM is not below 95%.

On to `O=C(NC1CCCCC1)N1CCOc2cccnc21` [Compound I-17], for which the inhibition at 50 µM is 88%.

As for `O=C(Nc1ccccc1)N1CCOc2ccc(Nc3ccncc3)nc21` [Compound I-182], the inhibition at 50 µM was not below 95%.

By inhibition is commonly meant the change of the read-out against control, counted positive when it falls.
